Source: US20260042764A1, “COMPOSITIONS AND METHODS FOR INHIBITION OF KRAS” (TheRas, Inc., priority 2022, published 2026)

How the values were obtained:
[1] = target: T1, Avi-KRAS G12D (1-169) GppNHp/RAF1 RBD-3xFLAG (52-151) (Homo sapiens, UniProt P01116, G12D); experiment: Raf1-KRAS G12D-GppNHP disruption HTRF assay (Biological Example 1); format: binding; settings: KRAS G12D, GppNHp-loaded; Table 11
T1 construct: Avi-KRAS G12D (1-169)
Summary of the method: (§1)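 HTRF PPI disruption; buffer 50 mM Tris pH 7.5, 100 mM NaCl, 5 mM MgCl2, 0.1% BSA, 0.01% Tween, 10% DMSO. Protein mix 1 h RT shaking, reagent mix 1 h RT shaking. Data as % activity vs DMSO (100%).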

[2] = target: T2, Avi-KRAS G12R (1-169) GppNHp/RAF1 RBD-3xFLAG (52-151) (Homo sapiens, UniProt P01116, G12R); experiment: Raf1-KRAS G12R-GppNHP disruption HTRF assay (Biological Example 1); format: binding; settings: KRAS G12R, GppNHp-loaded; Table 11
T2 construct: Avi-KRAS G12R (1-169)
Summary of the method: as §1

[3] = target: T3, Avi-KRAS G12V (1-169) GppNHp/RAF1 RBD-3xFLAG (52-151) (Homo sapiens, UniProt P01116, G12V); experiment: Raf1-KRAS G12V-GppNHP disruption HTRF assay (Biological Example 1); format: binding; settings: KRAS G12V, GppNHp-loaded; Table 11
T3 construct: Avi-KRAS G12V (1-169)
Summary of the method: as §1

[4] = target: T4, Avi-KRAS WT (1-169) GppNHp/RAF1 RBD-3xFLAG (52-151) (Homo sapiens, UniProt P01116); experiment: Raf1-KRAS WT-GppNHP disruption HTRF assay (Biological Example 1); format: binding; settings: KRAS WT, GppNHp-loaded; Table 11
T4 construct: Avi-KRAS WT (1-169)
Summary of the method: as §1

[5] = test system: GP2d cells (KRAS G12D); experiment: Cell-based pERK HTRF assay in GP2d cell (Biological Example 2); settings: GP2d (KRAS G12D) cells, pERK HTRF
Summary of the method: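 HTRF read-out of pERK (excitation 320 nm, emission 615 nm) after lysates sat 4–24 h at room temperature with Eu cryptate and d2 antibodies.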

[6] = test system: SW620 cells (KRAS G12V); experiment: Cell-based pERK HTRF assay in SW620 cell (Biological Example 4); settings: pERK HTRF
Summary of the method: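 Read-out: HTRF pERK signal (excitation 320 nm, emission 615 nm) from lysates of SW620 cells after 4 h compound exposure. Dose range was 9 points, half-log steps from 1 μM, in 0.25% DMSO; antibody incubation ran 4–24 h at room temperature.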

[7] = Homo sapiens, SW-620, SW620 (KRAS G12V) cells

T1 sequence (P01116 1-169 isoform P01116-2 G12D): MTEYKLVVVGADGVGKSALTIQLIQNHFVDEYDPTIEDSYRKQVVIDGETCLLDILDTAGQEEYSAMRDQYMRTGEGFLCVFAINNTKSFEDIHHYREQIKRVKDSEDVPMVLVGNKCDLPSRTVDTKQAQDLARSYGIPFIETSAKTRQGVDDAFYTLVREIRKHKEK
T3 sequence (P01116 1-169 isoform P01116-2 G12V): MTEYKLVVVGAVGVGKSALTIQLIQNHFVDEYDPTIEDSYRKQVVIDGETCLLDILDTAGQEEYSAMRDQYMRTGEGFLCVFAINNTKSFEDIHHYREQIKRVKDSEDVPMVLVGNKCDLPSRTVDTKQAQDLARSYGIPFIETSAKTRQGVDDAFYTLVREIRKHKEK
T2 sequence (P01116 1-169 isoform P01116-2 G12R): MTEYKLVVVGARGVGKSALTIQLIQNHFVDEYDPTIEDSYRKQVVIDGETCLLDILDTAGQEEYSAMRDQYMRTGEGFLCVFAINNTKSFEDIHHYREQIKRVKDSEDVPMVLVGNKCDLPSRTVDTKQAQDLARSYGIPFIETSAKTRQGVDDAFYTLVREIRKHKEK
T4 sequence (P01116 1-169 isoform P01116-2): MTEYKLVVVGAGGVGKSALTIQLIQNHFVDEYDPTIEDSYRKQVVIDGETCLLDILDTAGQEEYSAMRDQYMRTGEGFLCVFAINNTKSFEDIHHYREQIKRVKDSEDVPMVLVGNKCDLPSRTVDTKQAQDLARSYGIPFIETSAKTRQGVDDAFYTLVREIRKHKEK

SMILES	IC50 [1]	IC50 [2]	IC50 [3]	IC50 [4]	IC50 ([5]; GP2d)	IC50 [6, 7]	IC50 [5]	IC50 ([6]; SW620 (KRAS G12V) cells)
CN(C[C@@H](F)CO)c1nc(OC[C@@]23CCCN2C[C@H](F)C3)nc2c(F)c(-c3ccc(F)c4sc(N)c(C#N)c34)c(C(F)(F)F)cc12 [Compound 218]	0.1 to 1 µM	0.1 to 1 µM	0.1 to 1 µM	0.1 to 1 µM	< 0.1 µM	< 0.1 µM		
CC(=O)N1CC[C@H](N(C)c2nc(OC[C@@H]3C[C@@H](F)CN3C)nc3c(F)c(-c4ccc(F)c5sc(N)c(C#N)c45)c(C(F)(F)F)cc23)[C@@H]1C [Compound 226]	> 10 µM	> 10 µM	> 10 µM	> 10 µM	> 1 µM	> 1 µM		
CC1(O)CCN(c2nc(OC[C@@]34CCCN3C[C@H](F)C4)nc3c(F)c(-c4ccc(F)c5sc(N)c(C#N)c45)c(C(F)(F)F)cc23)CC1 [Compound 228]	0.1 to 1 µM	1 to 10 µM	1 to 10 µM	0.1 to 1 µM	0.1 to 1 µM	0.1 to 1 µM		
CC(=O)N1CCN(c2nc(OC[C@@]34CCCN3C[C@H](F)C4)nc3c(F)c(-c4ccc(F)c5sc(N)c(C#N)c45)c(C(F)(F)F)cc23)C[C@H]1C [Compound 229]	0.1 to 1 µM	1 to 10 µM	1 to 10 µM	1 to 10 µM	< 0.1 µM	< 0.1 µM		
CC(=O)N1CCN(c2nc(OC[C@@]34CCCN3C[C@H](F)C4)nc3c(F)c(-c4ccc(F)c5sc(N)c(C#N)c45)c(C(F)(F)F)cc23)[C@@H](C)C1 [Compound 230]	0.1 to 1 µM	1 to 10 µM	1 to 10 µM	0.1 to 1 µM	< 0.1 µM	< 0.1 µM		
N#Cc1c(N)sc2c(F)ccc(-c3c(C(F)(F)F)cc4c(N5CCCC6(CC(O)C6)C5)nc(OC[C@@]56CCCN5C[C@H](F)C6)nc4c3F)c12 (stereo partly drawn) [Compound 231]	1 to 10 µM	1 to 10 µM	> 10 µM	1 to 10 µM			0.1 to 1 µM	0.1 to 1 µM
N#Cc1c(N)sc2c(F)ccc(-c3c(C(F)(F)F)cc4c(N5CCn6nccc6C5)nc(OC[C@@]56CCCN5C[C@H](F)C6)nc4c3F)c12 [Compound 233]	0.1 to 1 µM	0.1 to 1 µM	1 to 10 µM	0.1 to 1 µM			< 0.1 µM	< 0.1 µM
C[C@H]1CCN1c1nc(OC[C@@]23CCCN2C[C@H](F)C3)nc2c(F)c(-c3ccc(F)c4sc(N)c(C#N)c34)c(C(F)(F)F)cc12 [Compound 235]	0.1 to 1 µM	0.1 to 1 µM	0.1 to 1 µM	0.1 to 1 µM	< 0.1 µM	< 0.1 µM		
N#Cc1c(N)sc2c(F)ccc(-c3c(C(F)(F)F)cc4c(N5CCC[C@H](O)C5)nc(OC[C@@]56CCCN5C[C@H](F)C6)nc4c3F)c12 [Compound 236]	0.1 to 1 µM	0.1 to 1 µM	0.1 to 1 µM	0.1 to 1 µM	< 0.1 µM	< 0.1 µM		
CO[C@@H]1C[C@@H](COc2nc(N(C)[C@H]3CCN(C(C)=O)[C@H]3C)c3cc(C(F)(F)F)c(-c4ccc(F)c5sc(N)c(C#N)c45)c(F)c3n2)N(C)C1 [Compound 238]	> 10 µM	> 10 µM	> 10 µM	> 10 µM	> 1 µM	> 1 µM		
CC(=O)N1CC[C@H](N(C)c2nc(OC[C@@H]3CCCN3C)nc3c(F)c(-c4ccc(F)c5sc(N)c(C#N)c45)c(C(F)(F)F)cc23)[C@@H]1C [Compound 239]	> 10 µM	> 10 µM	> 10 µM	> 10 µM	> 1 µM	> 1 µM		
C[C@]1(O)CCCN(c2nc(OC[C@@]34CCCN3C[C@H](F)C4)nc3c(F)c(-c4ccc(F)c5sc(N)c(C#N)c45)c(C(F)(F)F)cc23)C1 [Compound 241]	0.1 to 1 µM	0.1 to 1 µM	0.1 to 1 µM	0.1 to 1 µM	< 0.1 µM	< 0.1 µM		
C[C@]1(O)CCN(c2nc(OC[C@@]34CCCN3C[C@H](F)C4)nc3c(F)c(-c4ccc(F)c5sc(N)c(C#N)c45)c(C(F)(F)F)cc23)C1 [Compound 242]	0.1 to 1 µM	0.1 to 1 µM	0.1 to 1 µM	0.1 to 1 µM	< 0.1 µM	0.1 to 1 µM		
N#Cc1c(N)sc2c(F)ccc(-c3c(C(F)(F)F)cc4c(N5CCn6nncc6C5)nc(OC[C@@]56CCCN5C[C@H](F)C6)nc4c3F)c12 [Compound 243]	0.1 to 1 µM	0.1 to 1 µM	0.1 to 1 µM	0.1 to 1 µM	< 0.1 µM	< 0.1 µM		

Now from value to compound:

IC50 [1]	IC50 [2]	IC50 [3]	IC50 [4]	IC50 ([5]; GP2d)	IC50 [6, 7]	IC50 [5]	IC50 ([6]; SW620 (KRAS G12V) cells)	SMILES
0.1 to 1 µM	0.1 to 1 µM	0.1 to 1 µM	0.1 to 1 µM	< 0.1 µM	< 0.1 µM			N#Cc1c(N)sc2c(F)ccc(-c3c(C(F)(F)F)cc4c(N5CC(F)C5)nc(OC[C@@]56CCCN5C[C@H](F)C6)nc4c3F)c12 [Compound 222]
0.1 to 1 µM	1 to 10 µM	1 to 10 µM	0.1 to 1 µM	0.1 to 1 µM	0.1 to 1 µM			CS(=O)(=O)C1CN(c2nc(OC[C@@]34CCCN3C[C@H](F)C4)nc3c(F)c(-c4ccc(F)c5sc(N)c(C#N)c45)c(C(F)(F)F)cc23)C1 [Compound 223]
0.1 to 1 µM	0.1 to 1 µM	0.1 to 1 µM	0.1 to 1 µM	< 0.1 µM	< 0.1 µM			C[C@@]1(O)CCCN(c2nc(OC[C@@]34CCCN3C[C@H](F)C4)nc3c(F)c(-c4ccc(F)c5sc(N)c(C#N)c45)c(C(F)(F)F)cc23)C1 [Compound 224]
1 to 10 µM	> 10 µM	> 10 µM	> 10 µM	0.1 to 1 µM	0.1 to 1 µM			CC(=O)N1CC[C@H](N(C)c2nc(OC[C@@H]3CC4(CC4)CN3C)nc3c(F)c(-c4ccc(F)c5sc(N)c(C#N)c45)c(C(F)(F)F)cc23)[C@@H]1C [Compound 227]
0.1 to 1 µM	0.1 to 1 µM	0.1 to 1 µM	0.1 to 1 µM	< 0.1 µM	< 0.1 µM			CC(=O)N1C[C@@H](F)[C@@H](N(C)c2nc(OC[C@@]34CCCN3C[C@H](F)C4)nc3c(F)c(-c4ccc(F)c5sc(N)c(C#N)c45)c(C(F)(F)F)cc23)C1 [Compound 237]
1 to 10 µM	1 to 10 µM	1 to 10 µM	1 to 10 µM	0.1 to 1 µM	> 1 µM			C[C@H]1[C@@H](N(C)c2nc(OC[C@@]34CCCN3C[C@H](F)C4)nc3c(F)c(-c4ccc(F)c5sc(N)c(C#N)c45)c(C(F)(F)F)cc23)CCN1C(=O)CO [Compound 240]
